Experiments:
Conditions in all cases: incubation time: 72 h
BT-474 [1] = assay: drug sensitivity score (DSS), CellTox Green (DSS (AUC-based score)); higher = stronger drug effect (viability inhibition or cytotoxicity); extreme values may be limits of the assay
Method in brief: (§1)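 The area under the fitted dose-response curve was used to calculate the drug sensitivity score. Cells from breast cancer lines were incubated for 72 h in 384-well plates with compound at 5 concentrations spaced 10-fold over a 10,000-fold range specific to each compound. Plates were read for CellTox Green and then CellTiter-Glo, and normalised to 0.1 % DMSO and a positive kill control.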

BT-549 [2] = assay: as above
Method in brief: as §1

CAL-120 = assay: as above
Method in brief: as §1

CAL-51 = assay: as above
Method in brief: as §1

CAL-85-1 [3] = assay: as above
Method in brief: as §1

DU-4475 [4] = assay: as above
Method in brief: as §1

HCC1599 [5] = assay: as above
Method in brief: as §1

HCC1937 [6] = assay: as above
Method in brief: as §1

Hs578T [7] = assay: as above
Method in brief: as §1

MCF-10A = assay: as above
Method in brief: as §1

MDA-MB-231 [8] = assay: as above
Method in brief: as §1

MDA-MB-436 = assay: as above
Method in brief: as §1

MDA-MB-453 [9] = assay: as above
Method in brief: as §1

MDA-MB-468 [10] = assay: as above
Method in brief: as §1

BT-474 [11] = assay: normalised viability (% of control), CellTiter-Blue; higher = more viable cells (about 100 = DMSO control)
Method in brief: (§2)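 Breast cancer cell lines in 20 µl suspension were seeded onto 384-well plates pre-loaded with compound dissolved in 5 µl medium, then incubated 72 h. CellTiter-Blue reagent (2.5 µl) was added for 2 h at 37 °C and fluorescence read at 560/590 nm. Each plate was normalised to vehicle (100) and a positive kill control (0), with Z'-factor quality control. The value is normalised viability at one listed concentration of the series.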

BT-549 [12] = assay: as above
Method in brief: as §2

CAL-148 = assay: as above
Method in brief: as §2

CAL-85-1 [13] = assay: as above
Method in brief: as §2

DU-4475 [14] = assay: as above
Method in brief: as §2

HCC1143 = assay: as above
Method in brief: as §2

HCC1599 [15] = assay: as above
Method in brief: as §2

HCC1937 [16] = assay: as above
Method in brief: as §2

HDQ-P1 = assay: as above
Method in brief: as §2

Hs578T [17] = assay: as above
Method in brief: as §2

MDA-MB-231 [18] = assay: as above
Method in brief: as §2

MDA-MB-453 [19] = assay: as above
Method in brief: as §2

MDA-MB-468 [20] = assay: as above
Method in brief: as §2

SK-BR-3 = assay: as above
Method in brief: as §2

SMILES: COc1cc2c(NC3CCN(C(C)C)CC3)nc(N3CCC(F)(F)CC3)nc2cc1OCCCN1CCCC1 [UNC0642]
- drug sensitivity score (BT-474 [1]): 6.46
- drug sensitivity score (BT-549 [2]): 0
- drug sensitivity score (CAL-120): 4.13
- drug sensitivity score (CAL-51): 0
- drug sensitivity score (CAL-85-1 [3]): 6.85
- drug sensitivity score (DU-4475 [4]): 0
- drug sensitivity score (HCC1599 [5]): 0
- drug sensitivity score (HCC1937 [6]): 1.95
- drug sensitivity score (Hs578T [7]): 0
- drug sensitivity score (MCF-10A): 2.29
- drug sensitivity score (MDA-MB-231 [8]): 7.71
- drug sensitivity score (MDA-MB-436): 11
- drug sensitivity score (MDA-MB-453 [9]): 1.18
- drug sensitivity score (MDA-MB-468 [10]): 5.22

SMILES: Cc1ccc(NC(=O)c2ccc(CN3CCN(C)CC3)cc2)cc1Nc1nc(-c2cccnc2)cs1 [Masitinib]
- normalised viability (BT-474 [11]; 100 nM): 115%
- normalised viability (BT-549 [12]; 100 nM): 88.3%
- normalised viability (CAL-148; 10 nM): 89.8%
- normalised viability (CAL-85-1 [13]; 10 nM): 98.1%
- normalised viability (DU-4475 [14]; 10 nM): 102%
- normalised viability (HCC1143; 100 nM): 83%
- normalised viability (HCC1599 [15]; 100 nM): 109%
- normalised viability (HCC1937 [16]; 100 nM): 107%
- normalised viability (HDQ-P1; 10 nM): 116%
- normalised viability (Hs578T [17]; 100 nM): 86.6%
- normalised viability (MDA-MB-231 [18]; 100 nM): 88.7%
- normalised viability (MDA-MB-453 [19]; 10 nM): 103%
- normalised viability (MDA-MB-468 [20]; 100 nM): 103%
- normalised viability (SK-BR-3; 100 nM): 80.7%
- drug sensitivity score (BT-474 [1]): 0
- drug sensitivity score (BT-549 [2]): 0
- drug sensitivity score (CAL-120): 0
- drug sensitivity score (CAL-51): 0
- drug sensitivity score (CAL-85-1 [3]): 0
- drug sensitivity score (DU-4475 [4]): 0
- drug sensitivity score (HCC1599 [5]): 0.597
- drug sensitivity score (HCC1937 [6]): 0
- drug sensitivity score (Hs578T [7]): 1.55
- drug sensitivity score (MCF-10A): 0
- drug sensitivity score (MDA-MB-231 [8]): 5.53
- drug sensitivity score (MDA-MB-453 [9]): 0
- drug sensitivity score (MDA-MB-468 [10]): 1.39

SMILES: CCOC(=O)CCNc1cc(N2CCc3ccccc3CC2)nc(-c2ccccn2)n1 [GSK-J4]
- drug sensitivity score (BT-474 [1]): 19
- drug sensitivity score (BT-549 [2]): 7.69
- drug sensitivity score (CAL-120): 8.01
- drug sensitivity score (CAL-51): 11.4
- drug sensitivity score (CAL-85-1 [3]): 16.5
- drug sensitivity score (DU-4475 [4]): 2.65
- drug sensitivity score (HCC1599 [5]): 2.51
- drug sensitivity score (HCC1937 [6]): 7.05
- drug sensitivity score (Hs578T [7]): 20.6
- drug sensitivity score (MCF-10A): 8.52
- drug sensitivity score (MDA-MB-231 [8]): 11.1
- drug sensitivity score (MDA-MB-436): 7.09
- drug sensitivity score (MDA-MB-453 [9]): 7.34
- drug sensitivity score (MDA-MB-468 [10]): 12.3

SMILES: O=P1(N(CCCl)CCCl)NCCCO1 (stereo unspecified) [Cyclophosphamide]
- normalised viability (BT-474 [11]; 400 nM): 118%
- normalised viability (BT-549 [12]; 400 nM): 117%
- normalised viability (CAL-148; 40 nM): 103%
- normalised viability (CAL-85-1 [13]; 40 nM): 101%
- normalised viability (DU-4475 [14]; 40 nM): 103%
- normalised viability (HCC1143; 400 nM): 90.2%
- normalised viability (HCC1599 [15]; 400 nM): 109%
- normalised viability (HCC1937 [16]; 400 nM): 99.8%
- normalised viability (HDQ-P1; 40 nM): 97.9%
- normalised viability (Hs578T [17]; 400 nM): 93%
- normalised viability (MDA-MB-231 [18]; 400 nM): 97.8%
- normalised viability (MDA-MB-453 [19]; 40 nM): 110%
- normalised viability (MDA-MB-468 [20]; 400 nM): 109%
- normalised viability (SK-BR-3; 400 nM): 91.6%
- drug sensitivity score (BT-474 [1]): 0
- drug sensitivity score (BT-549 [2]): 0
- drug sensitivity score (CAL-120): 0
- drug sensitivity score (CAL-51): 0
- drug sensitivity score (CAL-85-1 [3]): 0
- drug sensitivity score (DU-4475 [4]): 0
- drug sensitivity score (HCC1599 [5]): 0
- drug sensitivity score (HCC1937 [6]): 0
- drug sensitivity score (MCF-10A): 0
- drug sensitivity score (MDA-MB-231 [8]): 0
- drug sensitivity score (MDA-MB-436): 0
- drug sensitivity score (MDA-MB-453 [9]): 0

SMILES: COC(=O)c1ccc2c(c1)NC(=O)/C2=C(\Nc1ccc(N(C)C(=O)CN2CCN(C)CC2)cc1)c1ccccc1 [BIBF 1120]
- normalised viability (BT-474 [11]; 100 nM): 130%
- normalised viability (BT-549 [12]; 100 nM): 111%
- normalised viability (CAL-148; 10 nM): 100%
- normalised viability (CAL-85-1 [13]; 10 nM): 99.9%
- normalised viability (DU-4475 [14]; 10 nM): 114%
- normalised viability (HCC1143; 100 nM): 88.2%
- normalised viability (HCC1599 [15]; 100 nM): 91.3%
- normalised viability (HCC1937 [16]; 100 nM): 115%
- normalised viability (HDQ-P1; 10 nM): 122%
- normalised viability (Hs578T [17]; 100 nM): 104%
- normalised viability (MDA-MB-231 [18]; 100 nM): 104%
- normalised viability (MDA-MB-453 [19]; 10 nM): 101%
- normalised viability (MDA-MB-468 [20]; 100 nM): 111%
- normalised viability (SK-BR-3; 100 nM): 91.6%

SMILES: COc1cc(O)c2c(c1)/C=C/C[C@H](O)[C@H](O)C(=O)/C=C\C[C@H](C)OC2=O [(5Z)-7-Oxozeaenol]
- drug sensitivity score (BT-474 [1]): 1.65
- drug sensitivity score (BT-549 [2]): 0
- drug sensitivity score (CAL-120): 0
- drug sensitivity score (CAL-51): 1.06
- drug sensitivity score (CAL-85-1 [3]): 18.5
- drug sensitivity score (DU-4475 [4]): 4.86
- drug sensitivity score (HCC1599 [5]): 0
- drug sensitivity score (HCC1937 [6]): 18.1
- drug sensitivity score (Hs578T [7]): 8.72
- drug sensitivity score (MCF-10A): 0
- drug sensitivity score (MDA-MB-231 [8]): 9.09
- drug sensitivity score (MDA-MB-436): 0
- drug sensitivity score (MDA-MB-453 [9]): 0
- drug sensitivity score (MDA-MB-468 [10]): 0

SMILES: Nc1cc(C(F)(F)F)c(-c2cc(N3CCOCC3)nc(N3CCOCC3)n2)cn1 [BKM-120]
- normalised viability (BT-474 [11]; 100 nM): 115%
- normalised viability (BT-549 [12]; 100 nM): 96.8%
- normalised viability (CAL-148; 10 nM): 94.9%
- normalised viability (CAL-85-1 [13]; 10 nM): 86.6%
- normalised viability (DU-4475 [14]; 10 nM): 98.3%
- normalised viability (HCC1143; 100 nM): 86.1%
- normalised viability (HCC1599 [15]; 100 nM): 70.1%
- normalised viability (HCC1937 [16]; 100 nM): 112%
- normalised viability (HDQ-P1; 10 nM): 111%
- normalised viability (Hs578T [17]; 100 nM): 96.6%
- normalised viability (MDA-MB-231 [18]; 100 nM): 83.6%
- normalised viability (MDA-MB-453 [19]; 10 nM): 96%
- normalised viability (MDA-MB-468 [20]; 100 nM): 99.2%
- normalised viability (SK-BR-3; 100 nM): 76.7%

SMILES: Cc1cc(Nc2cc(CN3CCOCC3)c3nc(C)c(Cc4ccc(Cl)cc4F)n3n2)n[nH]1
- normalised viability (BT-474 [11]; 100 nM): 102%
- normalised viability (BT-549 [12]; 100 nM): 93.5%
- normalised viability (CAL-148; 10 nM): 97.9%
- normalised viability (CAL-85-1 [13]; 10 nM): 91.6%
- normalised viability (DU-4475 [14]; 10 nM): 99.6%
- normalised viability (HCC1143; 100 nM): 71.4%
- normalised viability (HCC1599 [15]; 100 nM): 122%
- normalised viability (HCC1937 [16]; 100 nM): 101%
- normalised viability (HDQ-P1; 10 nM): 92.8%
- normalised viability (Hs578T [17]; 100 nM): 85.9%
- normalised viability (MDA-MB-231 [18]; 100 nM): 102%
- normalised viability (MDA-MB-453 [19]; 10 nM): 91.1%
- normalised viability (MDA-MB-468 [20]; 100 nM): 103%
- normalised viability (SK-BR-3; 100 nM): 87.1%

SMILES: CNC(=O)c1ccc(N2C(=S)N(c3ccc(C#N)c(C(F)(F)F)c3)C(=O)C2(C)C)cc1F [Enzalutamide]
- drug sensitivity score (BT-474 [1]): 0
- drug sensitivity score (BT-549 [2]): 0
- drug sensitivity score (CAL-120): 0
- drug sensitivity score (CAL-51): 0
- drug sensitivity score (CAL-85-1 [3]): 0
- drug sensitivity score (DU-4475 [4]): 0
- drug sensitivity score (HCC1599 [5]): 0
- drug sensitivity score (HCC1937 [6]): 0
- drug sensitivity score (Hs578T [7]): 0
- drug sensitivity score (MCF-10A): 0
- drug sensitivity score (MDA-MB-231 [8]): 0
- drug sensitivity score (MDA-MB-436): 0
- drug sensitivity score (MDA-MB-453 [9]): 0
- drug sensitivity score (MDA-MB-468 [10]): 0

From the supplement of paper PMC4862054
